From patent US5972894A, “Peptides having potassium channel opener activity” (Cytran, Inc., priority 1997, dated 1999)
Residues, ends and D or L forms follow the SMILES beside them.

System: rats
Assay: Early ischemic myocardial arrhythmias after coronary artery ligation
Type: in vivo
Settings: for Number of Ventricular Extrasystoles / Overall Duration of Ventricular Tachycardia: 30 min after coronary occlusion
Procedure: White random-bred male rats weighing 200 g were given light ether anesthesia and were then immobilized and artificially ventilated. The descending branch of the left coronary artery of each rat was ligated. Immediately following ligation, a test or control substance was administered to each rat through the catheterized femoral vein, and an ECG recording was initiated (standard lead II) and maintained for the next 30 minutes.
GE and VT served as test substances and were administered to animals in the respective test groups at doses of 0.1, 1.0, and 10.0 mg/kg. The β-adrenergic blocking agent, propranolol (Obzidan, Germed, Germany), served as the positive control substance and was administered intravenously to each animal in the positive control group at a dose of 0.5 mg/kg. Physiological saline served as the negative control substance and was administered intravenously to animals in the negative control group. Each dose of each test or control substance was tested separately on a group of nine animals.
The following parameters were evaluated based upon the ECG recordings: (i) the number of ventricular extrasystoles that occurred within a 30-minute observation period following coronary occlusion; (ii) the overall cumulative duration of ventricular tachycardias (i.e., the summation of duration of individual paroxysmal ventricular rhythm disturbances in seconds) occurring within the 30-minute observation period; and (iii) the overall duration (in seconds) of the ventricular fibrillations occurring within the 30-minute observation period. The data were processed electronically and statistical comparisons were made between the values obtained from the animals in the experimental test groups and those in the different respective control groups.

Q: What does the source list for `NCC(=O)N[C@@H](CCC(=O)O)C(=O)O` [GE, L-Glycyl-L-Glutamic acid] (H-Gly-Glu-OH)?
A: Number of Ventricular Extrasystoles (0.1 mg/kg i.v.): 25.22; Overall Duration of Ventricular Tachycardia (0.1 mg/kg i.v.): 38.67 s; Number of Ventricular Extrasystoles (1.0 mg/kg i.v.): 116.22; Overall Duration of Ventricular Tachycardia (1.0 mg/kg i.v.): 93.17 s; Number of Ventricular Extrasystoles (10.0 mg/kg i.v.): 47.78; Overall Duration of Ventricular Tachycardia (10.0 mg/kg i.v.): 51.78 s; effect on overall duration of ventricular tachycardias (all of the tested doses): reduced the overall duration of ventricular tachycardias
